Columns and labels:
[1] = target: T1, human μ opiate receptor (Homo sapiens, UniProt P35372); assay: Affinity for the human μ opiate receptor ([3H]-naloxone displacement, CHO-K1 receptor membrane preparation, SPA); assay type: binding; conditions: test concentration of 1 μM
T1 construct: purchased PerkinElmer Life Sciences, Zaventem, Belgium RB-HOM; host or cells: CHO-K1 cells (membrane preparation)
Summary of the method: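 Test compounds, 1 nmol/l [3H]-naloxone and CHO-K1 membranes bearing the human μ opiate receptor are combined with WGA-SPA beads. After 90 minutes at room temperature, plates are centrifuged and radioactivity counted. Specific-binding inhibition at 1 μmol/l is given in percent.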

[2] = target: T2, serotonin (5-HT) reuptake (Rattus norvegicus, UniProt P31652); assay: Inhibition of serotonin (5HT) reuptake in synaptosomes from rat brain; assay type: biochemical; conditions: test concentration of 10 μM
T2 construct: synaptosomes are freshly isolated from areas of the rat brain; from tissue; host or cells: rat brain synaptosomes (P2 fraction)
Summary of the method: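 Compounds screened at 10 μM and reported as percent inhibition of serotonin uptake. Uptake measured in a freshly prepared P2 synaptosomal fraction from rat brain.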

T1 sequence (P35372 whole entry): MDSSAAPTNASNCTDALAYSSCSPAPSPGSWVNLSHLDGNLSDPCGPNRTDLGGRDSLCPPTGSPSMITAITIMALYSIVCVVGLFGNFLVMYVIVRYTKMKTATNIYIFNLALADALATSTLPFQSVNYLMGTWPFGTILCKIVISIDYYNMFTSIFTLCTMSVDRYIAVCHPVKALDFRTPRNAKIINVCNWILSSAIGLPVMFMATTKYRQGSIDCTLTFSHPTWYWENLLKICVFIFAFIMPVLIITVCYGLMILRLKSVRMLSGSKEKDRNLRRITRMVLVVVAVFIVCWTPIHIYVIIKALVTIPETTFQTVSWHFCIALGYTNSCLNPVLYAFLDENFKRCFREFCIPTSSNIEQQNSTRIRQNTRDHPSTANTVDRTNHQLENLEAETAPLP
T2 sequence (P31652 whole entry): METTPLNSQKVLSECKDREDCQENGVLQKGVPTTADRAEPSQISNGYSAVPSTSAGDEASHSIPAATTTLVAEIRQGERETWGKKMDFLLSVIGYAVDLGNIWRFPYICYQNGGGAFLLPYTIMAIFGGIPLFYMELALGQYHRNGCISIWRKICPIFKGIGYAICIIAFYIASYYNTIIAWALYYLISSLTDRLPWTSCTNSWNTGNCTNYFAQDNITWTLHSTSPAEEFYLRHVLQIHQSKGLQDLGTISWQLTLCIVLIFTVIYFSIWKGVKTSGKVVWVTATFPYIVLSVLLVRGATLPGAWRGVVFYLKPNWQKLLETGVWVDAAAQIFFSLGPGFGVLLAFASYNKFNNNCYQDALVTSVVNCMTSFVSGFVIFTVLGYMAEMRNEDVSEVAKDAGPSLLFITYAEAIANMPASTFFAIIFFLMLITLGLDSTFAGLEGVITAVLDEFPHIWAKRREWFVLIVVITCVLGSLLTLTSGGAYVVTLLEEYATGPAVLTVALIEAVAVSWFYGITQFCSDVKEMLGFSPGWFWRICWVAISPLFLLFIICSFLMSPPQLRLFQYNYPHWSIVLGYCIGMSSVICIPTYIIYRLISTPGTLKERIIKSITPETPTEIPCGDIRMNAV

COc1cc(C)c(S(=O)(=O)N(C)CCOCC(=O)NCC2CCC(C(c3ccc(F)cc3)N(C)C)CC2)c(C)c1 (stereo not drawn) [Example 458]
μ (binding on the μ opioid receptor, % inhibition) [1]: 48%
5-HT (inhibition of reuptake of serotonin, % inhibition) [2]: 85%

CN(C)C(c1ccc(F)cc1)C1CCC(CCNC(=O)COCCN(C)S(=O)(=O)c2ccc(F)cc2)CC1 (stereo not drawn) [Example 487]
μ (binding on the μ opioid receptor, % inhibition) [1]: 37%
5-HT (inhibition of reuptake of serotonin, % inhibition) [2]: 101%

CN(C)C(CCc1ccccc1)C1CCC(CNC(=O)COC2CCN(S(=O)(=O)c3ccc(Cl)cc3Cl)C2)CC1 (stereo not drawn) [Example 496]
μ (binding on the μ opioid receptor, % inhibition) [1]: 41%
5-HT (inhibition of reuptake of serotonin, % inhibition) [2]: 89%

COc1cc(C)c(S(=O)(=O)N2CCC(OCC(=O)NC3CCC(C(c4ccc(F)cc4)N(C)C)CC3)CC2)c(C)c1C (stereo not drawn) [Example 454]
μ (binding on the μ opioid receptor, % inhibition) [1]: 48%
5-HT (inhibition of reuptake of serotonin, % inhibition) [2]: 95%

COc1cc(C)c(S(=O)(=O)N2CCC(OCC(=O)NCCC3CCC(C(c4ccc(F)cc4)N(C)C)CC3)CC2)c(C)c1C (stereo not drawn) [Example 480]
μ (binding on the μ opioid receptor, % inhibition) [1]: 38%
5-HT (inhibition of reuptake of serotonin, % inhibition) [2]: 98%

CN(C)C(c1ccc(F)cc1)C1CCC(CCNC(=O)COCC2CCCN(S(=O)(=O)c3ccccc3)C2)CC1 (stereo not drawn) [Example 479]
μ (binding on the μ opioid receptor, % inhibition) [1]: 42%
5-HT (inhibition of reuptake of serotonin, % inhibition) [2]: 97%

COc1cc(C)c(S(=O)(=O)N2CCN(CCOCC(=O)NCC3CCC(C(CCc4ccccc4)N(C)C)CC3)CC2)c(C)c1C (stereo not drawn) [Example 528]
μ (binding on the μ opioid receptor, % inhibition) [1]: 34%
5-HT (inhibition of reuptake of serotonin, % inhibition) [2]: 94%

COc1ccc(S(=O)(=O)N2CCCCC2COCC(=O)NC2CCC(C(c3ccc(F)cc3)N(C)C)CC2)c(OC)c1 (stereo not drawn) [Example 524]
μ (binding on the μ opioid receptor, % inhibition) [1]: 33%
5-HT (inhibition of reuptake of serotonin, % inhibition) [2]: 86%

COc1ccc(S(=O)(=O)N(C)CCOCC(=O)NCCC2CCC(C(c3ccc(Cl)cc3)N(C)C)CC2)cc1 (stereo not drawn) [Example 460]
μ (binding on the μ opioid receptor, % inhibition) [1]: 52%
5-HT (inhibition of reuptake of serotonin, % inhibition) [2]: 86%

COc1ccc(S(=O)(=O)N(C)CCOCC(=O)NCCC2CCC(C(c3ccc(F)cc3)N(C)C)CC2)cc1OC (stereo not drawn) [Example 484]
μ (binding on the μ opioid receptor, % inhibition) [1]: 35%
5-HT (inhibition of reuptake of serotonin, % inhibition) [2]: 96%

CN(C)C(c1ccc(F)cc1)C1CCC(CCNC(=O)COC2CCCN(S(=O)(=O)c3ccccc3)C2)CC1 (stereo not drawn) [Example 520]
μ (binding on the μ opioid receptor, % inhibition) [1]: 31%
5-HT (inhibition of reuptake of serotonin, % inhibition) [2]: 97%

COc1cc(C)c(S(=O)(=O)N(CCOCC(=O)NCC2CCC(C(c3ccc(Cl)cc3)N(C)C)CC2)Cc2ccccc2)c(C)c1 (stereo not drawn) [Example 473]
μ (binding on the μ opioid receptor, % inhibition) [1]: 34%
5-HT (inhibition of reuptake of serotonin, % inhibition) [2]: 64%

COc1cc(C)c(S(=O)(=O)N2CCC(CCOCC(=O)NCC3CCC(C(c4ccc(F)cc4)N(C)C)CC3)CC2)c(C)c1C (stereo not drawn) [Example 481]
μ (binding on the μ opioid receptor, % inhibition) [1]: 38%
5-HT (inhibition of reuptake of serotonin, % inhibition) [2]: 88%

COc1cc(C)c(S(=O)(=O)N2CCCC(OCC(=O)NCCC3CCC(C(c4ccc(Cl)cc4)N(C)C)CC3)C2)c(C)c1C (stereo not drawn) [Example 485]
μ (binding on the μ opioid receptor, % inhibition) [1]: 46%
5-HT (inhibition of reuptake of serotonin, % inhibition) [2]: 92%

CN(C)C(c1ccc(F)cc1)C1CCC(CNC(=O)COC2CCN(S(=O)(=O)c3ccc(F)cc3)C2)CC1 (stereo not drawn) [Example 522]
μ (binding on the μ opioid receptor, % inhibition) [1]: 35%
5-HT (inhibition of reuptake of serotonin, % inhibition) [2]: 98%

Cc1cc(C)c(S(=O)(=O)N2CCC(OCC(=O)NCCC3CCC(C(c4ccc(F)cc4)N(C)C)CC3)C2)c(C)c1 (stereo not drawn) [Example 501]
μ (binding on the μ opioid receptor, % inhibition) [1]: 45%
5-HT (inhibition of reuptake of serotonin, % inhibition) [2]: 77%

CN(C)C(CCc1ccccc1)C1CCC(CNC(=O)COCCN(Cc2ccccc2)S(=O)(=O)c2ccccc2)CC1 (stereo not drawn) [Example 533]
μ (binding on the μ opioid receptor, % inhibition) [1]: 28%
5-HT (inhibition of reuptake of serotonin, % inhibition) [2]: 93%

CCN(CCOCC(=O)NCC1CCC(C(CCc2ccccc2)N(C)C)CC1)S(=O)(=O)c1c(C)cc(OC)c(C)c1C (stereo not drawn) [Example 536]
μ (binding on the μ opioid receptor, % inhibition) [1]: 43%
5-HT (inhibition of reuptake of serotonin, % inhibition) [2]: 84%

CN(C)C(c1ccc(F)cc1)C1CCC(CCNC(=O)COC2CCN(S(=O)(=O)c3ccc(Cl)cc3)C2)CC1 (stereo not drawn) [Example 464]
μ (binding on the μ opioid receptor, % inhibition) [1]: 46%
5-HT (inhibition of reuptake of serotonin, % inhibition) [2]: 88%

COc1cc(C)c(S(=O)(=O)N2CCC(OCC(=O)NCC3CCC(C(c4ccc(F)cc4)N(C)C)CC3)C2)c(C)c1 (stereo not drawn) [Example 541]
μ (binding on the μ opioid receptor, % inhibition) [1]: 34%
5-HT (inhibition of reuptake of serotonin, % inhibition) [2]: 95%

CN(C)C(c1ccc(F)cc1)C1CCC(CNC(=O)COC2CCCN(S(=O)(=O)c3ccccc3)C2)CC1 (stereo not drawn) [Example 488]
μ (binding on the μ opioid receptor, % inhibition) [1]: 40%
5-HT (inhibition of reuptake of serotonin, % inhibition) [2]: 94%

COc1ccc(S(=O)(=O)N2CCCCC2CCOCC(=O)NCC2CCC(C(CCc3ccccc3)N(C)C)CC2)cc1 (stereo not drawn) [Example 535]
μ (binding on the μ opioid receptor, % inhibition) [1]: 34%
5-HT (inhibition of reuptake of serotonin, % inhibition) [2]: 85%

CN(C)C(c1ccc(F)cc1)C1CCC(CCNC(=O)COC2CCN(S(=O)(=O)c3cccc(C(F)(F)F)c3)C2)CC1 (stereo not drawn) [Example 466]
μ (binding on the μ opioid receptor, % inhibition) [1]: 30%
5-HT (inhibition of reuptake of serotonin, % inhibition) [2]: 89%

COc1ccc(S(=O)(=O)N(C)CCOCC(=O)NCC2CCC(C(c3ccc(F)cc3)N(C)C)CC2)cc1OC (stereo not drawn) [Example 514]
μ (binding on the μ opioid receptor, % inhibition) [1]: 27%
5-HT (inhibition of reuptake of serotonin, % inhibition) [2]: 70%

COc1ccc(S(=O)(=O)N2CCCC2COCC(=O)NC2CCC(C(c3ccc(F)cc3)N(C)C)CC2)cc1 (stereo not drawn) [Example 461]
μ (binding on the μ opioid receptor, % inhibition) [1]: 43%
5-HT (inhibition of reuptake of serotonin, % inhibition) [2]: 94%

COc1ccc(S(=O)(=O)N2CCCCC2COCC(=O)NCCC2CCC(C(c3ccc(Cl)cc3)N(C)C)CC2)cc1OC (stereo not drawn) [Example 540]
μ (binding on the μ opioid receptor, % inhibition) [1]: 23%
5-HT (inhibition of reuptake of serotonin, % inhibition) [2]: 81%

Cc1ccc(S(=O)(=O)N(C)CCOCC(=O)NCC2CCC(C(CCc3ccccc3)N(C)C)CC2)cc1 (stereo not drawn) [Example 452]
μ (binding on the μ opioid receptor, % inhibition) [1]: 46%
5-HT (inhibition of reuptake of serotonin, % inhibition) [2]: 88%

CN(C)C(c1ccc(Cl)cc1)C1CCC(CNC(=O)COC2CCN(S(=O)(=O)c3ccccc3)CC2)CC1 (stereo not drawn) [Example 471]
μ (binding on the μ opioid receptor, % inhibition) [1]: 35%
5-HT (inhibition of reuptake of serotonin, % inhibition) [2]: 94%

COc1cc(C)c(S(=O)(=O)N2CCC(CCOCC(=O)NCC3CCC(C(c4ccc(Cl)cc4)N(C)C)CC3)CC2)c(C)c1C (stereo not drawn) [Example 499]
μ (binding on the μ opioid receptor, % inhibition) [1]: 37%
5-HT (inhibition of reuptake of serotonin, % inhibition) [2]: 75%

CN(C)C(c1ccc(F)cc1)C1CCC(CCNC(=O)COCCC2CCN(S(=O)(=O)c3ccccc3)CC2)CC1 (stereo not drawn) [Example 470]
μ (binding on the μ opioid receptor, % inhibition) [1]: 35%
5-HT (inhibition of reuptake of serotonin, % inhibition) [2]: 82%

COc1cc(C)c(S(=O)(=O)N(CCOCC(=O)NCC2CCC(C(c3ccc(F)cc3)N(C)C)CC2)Cc2ccccc2)c(C)c1 (stereo not drawn) [Example 494]
μ (binding on the μ opioid receptor, % inhibition) [1]: 42%
5-HT (inhibition of reuptake of serotonin, % inhibition) [2]: 89%

Cc1ccc(S(=O)(=O)N(C)CCOCC(=O)NCCC2CCC(C(c3ccc(F)cc3)N(C)C)CC2)cc1 (stereo not drawn) [Example 457]
μ (binding on the μ opioid receptor, % inhibition) [1]: 47%
5-HT (inhibition of reuptake of serotonin, % inhibition) [2]: 90%

COc1ccc(S(=O)(=O)N2CCCCC2COCC(=O)NCCC2CCC(C(c3ccc(Cl)cc3)N(C)C)CC2)c(OC)c1 (stereo not drawn) [Example 474]
μ (binding on the μ opioid receptor, % inhibition) [1]: 46%
5-HT (inhibition of reuptake of serotonin, % inhibition) [2]: 88%

COc1cc(C)c(S(=O)(=O)N2CCC(OCC(=O)NCCC3CCC(C(c4ccc(F)cc4)N(C)C)CC3)C2)c(C)c1 (stereo not drawn) [Example 509]
μ (binding on the μ opioid receptor, % inhibition) [1]: 43%
5-HT (inhibition of reuptake of serotonin, % inhibition) [2]: 97%

COc1cc(C)c(S(=O)(=O)N(CCOCC(=O)NC2CCC(C(c3ccc(F)cc3)N(C)C)CC2)Cc2ccccc2)c(C)c1 (stereo not drawn) [Example 504]
μ (binding on the μ opioid receptor, % inhibition) [1]: 43%
5-HT (inhibition of reuptake of serotonin, % inhibition) [2]: 89%

CN(C)C(c1ccc(F)cc1)C1CCC(CCNC(=O)COC2CCN(S(=O)(=O)c3ccccc3)C2)CC1 (stereo not drawn) [Example 530]
μ (binding on the μ opioid receptor, % inhibition) [1]: 26%
5-HT (inhibition of reuptake of serotonin, % inhibition) [2]: 89%

CN(C)C(c1ccc(F)cc1)C1CCC(CCNC(=O)COC2CCN(S(=O)(=O)c3ccc(Cl)cc3Cl)C2)CC1 (stereo not drawn) [Example 456]
μ (binding on the μ opioid receptor, % inhibition) [1]: 50%
5-HT (inhibition of reuptake of serotonin, % inhibition) [2]: 88%

CN(C)C(CCc1ccccc1)C1CCC(CNC(=O)COCCN2CCN(S(=O)(=O)c3ccccc3)CC2)CC1 (stereo not drawn) [Example 526]
μ (binding on the μ opioid receptor, % inhibition) [1]: 32%
5-HT (inhibition of reuptake of serotonin, % inhibition) [2]: 90%

CN(C)C(c1ccc(F)cc1)C1CCC(CCNC(=O)COC2CCN(S(=O)(=O)c3ccc(F)cc3)C2)CC1 (stereo not drawn) [Example 518]
μ (binding on the μ opioid receptor, % inhibition) [1]: 35%
5-HT (inhibition of reuptake of serotonin, % inhibition) [2]: 102%
